Experimental data taken from the NIST ThermoML archive (doi:10.1016/j.fluid.2010.01.025).
Numbers after ± are expanded uncertainties.

What was measured:
[1] = Crystal; DTA
[2] = Molar enthalpy of transition or fusion; details: Crystal; DSC

- Normal melting temperature [1]: 42.7 ± 0.4 °C
- Molar enthalpy of transition or fusion [2]: 2.71 ± 0.0837 kcal/mol
Structure (SMILES): CCCC[n+]1cccc(C)c1.Cc1ccc(S(=O)(=O)[O-])cc1 [1-butyl-3-methylpyridinium 4-methylbenzenesulfonate]
